Assay results reported in patent publication US20230119759A1, “PHARMACEUTICAL COMBINATION COMPRISING PYRIDINO[1,2-A]PYRIMIDINONE COMPOUND” (CHIA TAI TIANQING PHARMACEUTICAL GROUP CO., LTD., priority 2020, published 2023).

Test system: BT-474 xenograft tumor
Assay: Human breast cancer (BT-474) xenograft tumor model in nude mice
Format: in vivo, BALB/c female nude mice
Conditions: for Mean tumor volume (day 28) / T/C / TGI: day 28; for Mean tumor volume (day 0): day 0 (start of treatment, baseline)
Method: BALB/c female nude mice (provided by Shanghai Sippr-BK Lab. Animal Co., Ltd.), SPF-grade, weight 18-25 g, aged about 8 weeks (tumor-bearing). Human breast cancer BT-474 cells (ATCC) were cultured in Hybri-Care medium containing 10% fetal bovine serum, 100 U/mL penicillin and […] in vitro monolayer culture at 37° C./5% CO2. The cells were digested with trypsin-EDTA twice a week for passaging as per conventional practice. When cell confluence was 80%-90%, the cells were collected, counted, and inoculated. Estrogen tablets were implanted 3 days before cell inoculation, 0.2 mL of BT-474 cells (1×10^7) were subcutaneously inoculated on the right back of each mouse, and grouping and administration was initiated when the mean tumor volume reached 127.19 mm^3. The compound of formula I was dissolved in a vehicle: 0.01 mol/L HCl solution, 0.5% methylcellulose and deionized water were mixed well in a volume ratio of 20:30:100.
The tumor volume was calculated using the following formula: V=0.5a×b^2, where a and b represent the long diameter and short diameter of the tumor, respectively. The percentage value of TIC (%) reflects the tumor growth inhibition rate, and where T and C represent the tumor weight (tumor volume) of the treatment groups and the control group, respectively, on a certain day.
The tumor growth inhibition rate was calculated using the following formula: TGI (%)=[1−(Ti−T0)/(Vi−V0)]×100, where Ti is the mean tumor volume of a certain treatment group on a certain day, T0 is the mean tumor volume of the treatment group at the start of treatment, Vi is the mean tumor volume of the vehicle control group on a certain day (same day as Ti) and V0 is the mean tumor volume of the vehicle control group at the start of treatment. Tumor weights were measured at the end of treatment and percentage Tweight/Cweight was calculated, where Tweight and Cweight represent the tumor weights of the treatment and vehicle control groups, respectively.

[1] = 1 mg/kg orally once daily for 28 days
[2] = 2 mg/kg orally once daily for 28 days
[3] = 4 mg/kg orally once daily for 28 days

For `COc1ncc(-c2ccc3ncc(OCCN(C)C)c(=O)n3c2)cc1NS(=O)(=O)c1ccc(F)cc1Cl` [Compound of formula I], the “Mean tumor volume (day 28)” value [1] was 223 ± 50 mm^3, the T/C [1] was 56.09% and the TGI [1] was 64.56%. For the same compound, the “Mean tumor volume (day 0)” value (1 mg/kg orally once daily) was 127 ± 11 mm^3, the “Mean tumor volume (day 28)” value [2] was 159 ± 36 mm^3 and the T/C [2] was 40.11%. The TGI [2] was 88.10%, the “Mean tumor volume (day 0)” value (2 mg/kg orally once daily) was 127 ± 11 mm^3 and the “Mean tumor volume (day 28)” value [3] was 145 ± 40 mm^3. For the same compound, the T/C [3] was 36.52%, the TGI [3] was 93.35% and the “Mean tumor volume (day 0)” value (4 mg/kg orally once daily) was 127 ± 11 mm^3. For the same compound, the “anti-tumor efficacy (in words)” value (BT-474 xenograft tumor model, 1-4 mg/kg orally) was “significant anti-tumor efficacy”.
